This note sets out measurements from patent EP0021836A1, “Clavulanic acid derivatives, process for their preparation and pharmaceutical compositions containing them” (BEECHAM GROUP PLC, priority 1979, dated 1981).

In one assay the test system is Kleb E70. As to the kind of experiment: standard MIC test (synergistic and antibacterial properties). The format is cell-based. The settings on record: substance alone; Kleb E70 (printed Kleb Eto in the 1st table); unit assumed.
Another assay concerns E.coli JT39. Described as above. In kind it is cell-based. The settings on record: substance alone, unit assumed.
The test system of a further assay is Staph Russell. The description is as above. Conditions: substance alone, in µg/mL (unit assumed). The format is cell-based.
The subject of a further assay is E. coli strain E96. As to the kind of experiment: in-vivo subcutaneous synergistic activity with amoxycillin against intraperitoneal infection in mice. The settings on record: Escherichia coli, sc, amoxycillin alone, read-out: CD50 (the source's name).
The subject of a further assay is E. coli strain E124. The description is as above. Conditions: Escherichia coli, sc, amoxycillin alone, read-out: CD50 (the source's name).

Each structure is given as a SMILES string. Values joined by “and” are separate entries in the source; they are usually repeats but may differ in a detail not shown here. Equal values may be shown once.

For `O=C(O)C1C(=CCNC2CCCC2)OC2CC(=O)N21` (stereo not shown) [Example 2, 9-N-Cyclopentylaminodeoxyclavulanic acid], the MIC in the assay on Kleb E70 was > 500 µg/mL; in the assay with E.coli JT39, 31.2 µg/mL; in the assay on Staph Russell, 16.
Turning to `CC(C)NCC=C1OC2CC(=O)N2C1C(=O)O` (stereo not shown) [Example 1, 9-N-Isopropylaminodeoxyclavulanic acid], the MIC with Kleb E70 worked out at 500 µg/mL; with E.coli JT39, 31.2 µg/mL; in the assay on Staph Russell, 8.
In the case of `CC1(C)S[C@@H]2[C@H](NC(=O)[C@H](N)c3ccc(O)cc3)C(=O)N2[C@H]1C(=O)O` [Amoxycillin], the ED50 in the assay on E. coli strain E96 and in the assay on E. coli strain E124 was > 1000 mg/kg each time.
Regarding `O=C(O)C1C(=CCNC2CCCCC2)OC2CC(=O)N21` (stereo not shown) [Example 3, 9-N-Cyclohexylaminodeoxyclavulanic acid], the MIC with Kleb E70 was found to be 500 µg/mL; in the assay on E.coli JT39, 62.5 µg/mL; in the assay on Staph Russell, 8.0.
Consider `O=C(O)[C@H]1/C(=C/CO)O[C@@H]2CC(=O)N21` [Clavulanic acid], for which the MIC in the assay with E.coli JT39 was 16 µg/mL; with Staph Russell, 16 and 31.2.
